According to PubChem BioAssay (NCI):
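Each compound was tested at five concentrations against cells in 96-well plates for 48 hours. Definition used: TGI = concentration required for complete inhibition of growth.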

What was measured:
Test in all cases: growth of human tumour cells (NCI), 48 h
[1] = tested on: EKVX NSCLC
[2] = tested on: MALME-3M melanoma
[3] = tested on: SK-OV-3 ovarian
[4] = tested on: NCI/ADR-RES ovarian
[5] = tested on: HCT-116 colon
[6] = tested on: NCI-H460 lung
[7] = tested on: UACC-257 melanoma
[8] = tested on: A549 NSCLC
[9] = tested on: SF-539 CNS
[10] = tested on: SK-MEL-28 melanoma
[11] = tested on: NCI-H23 lung
[12] = tested on: RXF 393 renal
[13] = tested on: SW-620 colon
[14] = tested on: UO-31 renal
[15] = tested on: SN12C renal
[16] = tested on: DU-145 prostate
[17] = tested on: SNB-19 CNS
[18] = tested on: NCI-H522 lung
[19] = tested on: MDA-MB-435
[20] = tested on: OVCAR-8 ovarian
[21] = tested on: HL-60(TB) leukemia
[22] = tested on: K-562 leukemia
[23] = tested on: IGROV1 ovarian
[24] = tested on: SK-MEL-5 melanoma
[25] = tested on: MDA-MB-231 breast
[26] = tested on: SF-295 CNS
[27] = tested on: OVCAR-3 ovarian
[28] = tested on: COLO 205 colon
[29] = tested on: SK-MEL-2 melanoma
[30] = tested on: OVCAR-4 ovarian
[31] = tested on: 786-0 renal
[32] = tested on: MCF7 breast
[33] = tested on: SF-268 CNS
[34] = tested on: ACHN renal
[35] = tested on: UACC-62 melanoma
[36] = tested on: T-47D breast
[37] = tested on: OVCAR-5 ovarian
[38] = tested on: HOP-62 NSCLC
[39] = tested on: MOLT-4 leukemia
[40] = tested on: BT-549 breast
[41] = tested on: HCT-15 colon
[42] = tested on: U251 CNS
[43] = tested on: HS 578T breast
[44] = tested on: KM12 colon
[45] = tested on: LOX IMVI melanoma
[46] = tested on: SNB-75 CNS
[47] = tested on: HT29 colon
[48] = tested on: SR leukemia
[49] = tested on: HOP-92 NSCLC
[50] = tested on: CAKI-1 renal
[51] = tested on: PC-3 prostate
[52] = tested on: M14 melanoma
[53] = tested on: TK-10 renal

Measured: TGI

O=C(CSc1nccc(=O)[nH]1)c1ccccc1
> 100 µM: all assays above
